Results taken from patent US20210355106A1, “NEW AMINO-PYRIMIDONYL-PIPERIDINYL DERIVATIVES, A PROCESS FOR THEIR PREPARATION AND PHARMACEUTICAL COMPOSITIONS CONTAINING THEM” (LES LABORATOIRES SERVIER, priority 2018, published 2021).

Legend:
[1] = molecular target: T1, USP7 (Homo sapiens, UniProt Q93009, C315A); assay: Inhibition of USP7 by Fluorescence Intensity (FLINT) readings, Ubiquitin-Rhodamine-110 substrate; type: biochemical; conditions: 0.25 nM His-His-USP7 (aa208-560), 60 minutes at 30° C. preincubation; Ki determined from IC50 according to Cer et al.
T1 construct: 0.25 nM His-His-USP7 (aa208-560, |C315A|) was incubated with compound; His-His (N)
T1 sequence (Q93009 208-560 C315A): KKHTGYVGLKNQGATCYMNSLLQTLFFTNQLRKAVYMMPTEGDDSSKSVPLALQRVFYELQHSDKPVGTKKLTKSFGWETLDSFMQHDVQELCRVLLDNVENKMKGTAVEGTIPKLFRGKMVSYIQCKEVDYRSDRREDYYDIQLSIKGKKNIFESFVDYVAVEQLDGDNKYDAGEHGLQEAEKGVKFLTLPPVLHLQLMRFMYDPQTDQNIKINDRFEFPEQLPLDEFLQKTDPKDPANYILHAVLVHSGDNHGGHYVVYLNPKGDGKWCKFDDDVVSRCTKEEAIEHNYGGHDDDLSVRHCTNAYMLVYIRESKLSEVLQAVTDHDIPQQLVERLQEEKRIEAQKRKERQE
Summary of the method: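 Kinetic rate of Rhodamine-110 release from ubiquitin substrate (50 nM or 4 μM), read every 3 min for 21 min, after 60 min, 30 °C preincubation of 0.25 nM USP7 catalytic domain C315A with compound. Bicine pH 8.0 buffer, 10% DMSO; 11-point IC50 vs DMSO and no-enzyme controls, converted to Ki.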

[2] = test system: Z138 mantle cell lymphoma tumour cell lines; assay: In vitro cytotoxicity, MTT assay; type: cell-based; conditions: Z138 cells, exposed to the test compounds for 96 hours
Summary of the method: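 MTT viability read-out: after 96 hours of compound treatment, Z138 mantle cell lymphoma cells received MTT for 4 hours, and formazan production was quantified by absorbance at 540 nm.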

Row | Structure (SMILES) | Ki [1] | IC50 ([2]; Homo sapiens, Z-138) | IC50 [2]
1 | COc1cc(Cl)cc(Oc2ncn(C[C@@]3(O)CCN(C(=O)[C@@H]4CCN(Cc5ccnc(C)n5)C[C@H]4c4ccccc4)CC3(F)F)c(=O)c2N)c1 [Example 175, 5-amino-6-(3-chloro-5-methoxy-phenoxy)-3-[[(4S)-3,3-difluoro-4-hydroxy-1-[(3R,4R)-1-[(2-methylpyrimidin-4-yl)methyl]-3-phenyl-piperidine-4-carbonyl]-4-piperidyl]methyl]pyrimidin-4-one] | 81.2 nM | 26.5 nM | –
2 | Nc1c(Oc2ccc(F)cc2)ncn(CC2(O)CCN(C(=O)[C@@H]3CCN(C(=O)c4cc(Cl)cc(Cl)c4)C[C@H]3c3ccccc3)CC2)c1=O [Example 130] | 1.83 nM | 7.5 nM | –
3 | Cc1ccnc(C(=O)N2CC[C@@H](C(=O)N3CCC(O)(Cn4cnc(Oc5ccc(F)cc5)c(N)c4=O)CC3)[C@H](c3ccccc3)C2)c1 [Example 94, 5-amino-6-(4-fluorophenoxy)-3-[[4-hydroxy-1-[(3R,4R)-1-(4-methylpyridine-2-carbonyl)-3-phenyl-piperidine-4-carbonyl]-4-piperidyl]methyl]pyrimidin-4-one] | 30 nM | 49 nM | –
4 | Nc1c(Oc2ccc(F)cc2)ncn(CC2(O)CCN(C(=O)[C@@H]3CCN(C4(c5cccc(C(F)(F)F)c5)COC4)C[C@H]3c3ccccc3)CC2)c1=O [Example 152, 5-amino-6-(4-fluorophenoxy)-3-[[4-hydroxy-1-[(3R,4R)-3-phenyl-1-[3-[3-(trifluoromethyl)phenyl]oxetan-3-yl]piperidine-4-carbonyl]-4-piperidyl]methyl]pyrimidin-4-one] | 82 nM | 202 nM | –
5 | Nc1c(Oc2ccc(F)cc2)ncn(CC2(O)CCN(C(=O)[C@@H]3CCN(C(=O)c4ccccc4)C[C@H]3c3ccccc3)CC2)c1=O [Example 36] | 15.1 nM | 8.93 nM | –
6 | Nc1c(Oc2ccc(F)cc2)ncn(CC2(O)CCN(C(=O)[C@@H]3CCN(Cc4cccnc4)C[C@H]3c3ccccc3)CC2)c1=O [Example 62, 5-amino-6-(4-fluorophenoxy)-3-[(4-hydroxy-1-{(3R,4R)-3-phenyl-1-[(pyridin-3-yl)methyl]piperidine-4-carbonyl)piperidin-4-yl)methyl]pyrimidin-4(3H)-one] | 14 nM | 14 nM | –
7 | Cn1c(C(=O)N2CC[C@@H](C(=O)N3CCC(O)(Cn4cnc(Oc5ccc(F)cc5)c(N)c4=O)CC3)[C@H](c3ccccc3)C2)cnc1Br [Example 95, 5-amino-3-({1-[(3R,4R)-1-(2-bromo-1-methyl-11H-imidazole-5-carbonyl)-3-phenylpiperidine-4-carbonyl]-4-hydroxypiperidin-4-yl}methyl)-6-(4-fluorophenoxy)pyrimidin-4(3H)-one] | 21 nM | 27 nM | –
8 | Nc1c(Oc2ccc(F)cc2)ncn(CC2(O)CCN(C(=O)[C@@H]3CCN(C(=O)c4cccc(Br)c4)C[C@H]3c3ccccc3)CC2)c1=O [Example 31, 5-amino-3-({1-((3R,4R)-1-(3-bromobenzoyl)-3-phenylpiperidine-4carbonyl]-4-hydroxypiperidin-4-yl)methyl)-6-(4-fluorophenoxy)pyrimidin-4(3H)-one] | 9.15 nM | 5.45 nM | –
9 | Cc1nccc(CN2CC[C@@H](C(=O)N3CC[C@](O)(Cn4cnc(Oc5ccc(Cl)c(F)c5)c(N)c4=O)C(F)(F)C3)[C@H](c3ccccc3)C2)n1 [Example 147] | 19 nM | 48.7 nM | –
10 | Nc1c(Oc2ccc(F)cc2)ncn(C[C@@]2(O)CCN(C(=O)[C@@H]3CCN(Cc4ccnc(Cl)n4)C[C@H]3c3ccccc3)CC2(F)F)c1=O [Example 160] | 16.9 nM | 6.47 nM | –
11 | Nc1c(Oc2ccc(F)cc2)ncn(CC2(O)CCN(C(=O)[C@@H]3CCN(S(=O)(=O)c4ccc(Br)s4)C[C@H]3c3ccccc3)CC2)c1=O [Example 59] | 35.8 nM | 41.1 nM | –
12 | Cc1cc(C)nc(CN2CC[C@@H](C(=O)N3CC[C@](O)(Cn4cnc(Oc5ccc(F)cc5)c(N)c4=O)C(F)(F)C3)[C@H](c3ccccc3)C2)n1 [Example 206, 5-amino-3-[[(4S)-1-[(3R,4R)-1-[(4,6-dimethylpyrimidin-2-yl)methyl]-3-phenyl-piperidine-4-carbonyl]-3,3-difluoro-4-hydroxy-4-piperidyl]methyl]-6(4-fluorophenoxy)pyrimidin-4-one] | 37.2 nM | 20.5 nM | –
13 | Cc1ccc(-c2nc(C)c(C(=O)N3CC[C@@H](C(=O)N4CCC(O)(Cn5cnc(Oc6cccc(C(F)(F)F)c6)c(N)c5=O)CC4)[C@H](c4ccccc4)C3)s2)cn1 [Example 26] | 6.1 nM | 20 nM | –
14 | Cn1c(C(=O)N2CC[C@@H](C(=O)N3CCC(O)(Cn4cnc(Oc5ccc(F)cc5)c(N)c4=O)CC3)[C@H](c3ccccc3)C2)c(Cl)c2ccccc21 [Example 127, 5-amino-3-[[1-[(3R,4R)-1-(3-chloro-1-methyl-indole-2-carbonyl)-3-phenyl-piperidine-4-carbonyl]-4-hydroxy-4-piperidyl]methyl]-6-(4-fluorophenoxy)pyrimidin-4-one] | 5.93 nM | 20.4 nM | –
15 | Cc1cnc(CN2CC[C@@H](C(=O)N3CC[C@](O)(Cn4cnc(Oc5cccc(C(F)(F)F)c5)c(N)c4=O)C(F)(F)C3)[C@H](c3ccccc3)C2)cn1 [Example 144, 5-amino-3-{[(4S)-3,3-difluoro-4-hydroxy-1-[(3R,4R)-1-((5-methylpyrazin-2-yl)methyl]-3-phenyl-piperidine-4-carbonyl]-4-piperidyl]methyl]-6-[3-(trifluoromethyl)phenoxy]pyrimidin-4-one] | 22 nM | 80.2 nM | –
16 | COc1ccc(NC(=O)N2CC[C@@H](C(=O)N3CCC(O)(Cn4cnc(Oc5ccc(F)cc5)c(N)c4=O)CC3)[C@H](c3ccccc3)C2)cc1 [Example 80] | 19 nM | 6.2 nM | –
17 | Cc1nc(-c2ccc(C(F)(F)F)nc2)sc1C(=O)N1CC[C@@H](C(=O)N2CCC(O)(Cn3cnc(Oc4ccc(F)cc4)c(N)c3=O)CC2)[C@H](c2ccccc2)C1 [Example 42, 5-amino-6-(4-fluorophenoxy)-3-({4-hydroxy-1-{(3R,4R)-1-{4-methyl-2-[6-(trifluromethyl)pyridin-3-yl]-1,3-thiazole-5carbonyl)-3-phenylpiperidine-4-carbonyl]piperidin-4-yl}methyl)pyrimidin-4(3H)-one] | 4.1 nM | – | 3.66 nM
18 | Cc1nc(C2CCCNC2)sc1C(=O)N1CC[C@@H](C(=O)N2CCC(O)(Cn3cnc(Oc4ccc(F)cc4)c(N)c3=O)CC2)[C@H](c2ccccc2)C1 (stereo partly drawn) [Example 172, 5-amino-6-(4-fluorophenoxy)-3-[[4-hydroxy-1-[(3R,4R)-1-[4-methyl-2-(3-piperidyl)thiazole-5-carbonyl]-3-phenyl-piperidine-4-carbonyl]-4-piperidyl]methyl]pyrimidin-4-one] | 7.64 nM | 385 nM | –
19 | CCOC(=O)C(c1ccccc1)N1CC[C@@H](C(=O)N2CCC(O)(Cn3cnc(Oc4ccc(F)cc4)c(N)c3=O)CC2)[C@H](c2ccccc2)C1 (stereo partly shown) [Example 70] | 63 nM | 34 nM | –
20 | CN1CCN(c2cccc(C(=O)N3CC[C@@H](C(=O)N4CCC(O)(Cn5cnc(Oc6ccc(F)cc6)c(N)c5=O)CC4)[C@H](c4ccccc4)C3)c2)CC1 [Example 56] | 16 nM | 42 nM | –
21 | COc1cc(Oc2ncn(C[C@@]3(O)CCN(C(=O)[C@@H]4CCN(Cc5cnc(C)cn5)C[C@H]4c4ccccc4)CC3(F)F)c(=O)c2N)ccc1F [Example 154] | 7.8 nM | 11.4 nM | –
22 | Nc1c(Oc2ccc(F)cc2)ncn(CC2(O)CCN(C(=O)[C@@H]3CCN(C(=O)Nc4cccc(C(F)(F)F)c4)C[C@H]3c3ccccc3)CC2)c1=O [Example 81, (3R,4R)-4-(4-{15-amino-4-(4-fluorophenoxy)-6-oxopyrimidin-[(6H)-yl]methyl}-4-hydroxypiperidine-1-carbonyl)-3-phenyl-N-[3-(trifluoromethyl)phenyl]piperidine-1-carboxamide] | 44 nM | 5.1 nM | –
23 | Cc1ccc(-c2cc(F)cc(C(=O)N3CC[C@@H](C(=O)N4CCC(O)(Cn5cnc(Oc6ccc(F)cc6)c(N)c5=O)CC4)[C@H](c4ccccc4)C3)c2)cn1 [Example 121] | 4.68 nM | 6.4 nM | –
24 | Cc1nc(C2CCOCC2)sc1C(=O)N1CC[C@@H](C(=O)N2CC[C@](O)(Cn3cnc(Oc4ccc(F)cc4)c(N)c3=O)C(F)(F)C2)[C@H](c2ccccc2)C1 [Example 192, 5-amino-3-[[(4S)-3,3-difluoro-4-hydroxy-1-[(3R,4R)-1-(4-methyl-2-tetrahydropyran-4-yl-thiazole-5-carbonyl)-3-phenyl-piperidine-4-carbonyl]-4-piperidyl]methyl]-6-(4-fluorophenoxy)pyrimidin-4-one] | 8.8 nM | 8.48 nM | –
25 | Nc1c(Oc2ccc(F)cc2)ncn(CC2(O)CCN(C(=O)[C@@H]3CCN(S(=O)(=O)c4cccc(Br)c4)C[C@H]3c3ccccc3)CC2)c1=O [Example 69, 5-amino-3-[[1-[(3R,4R)-1-(3-bromophenyl)sulfonyl-3-phenyl-piperidine-4-carbonyl]-4-hydroxy-4-piperidyl]methyl]-6-(4-fluorophenoxy)pyrimidin-4-one] | 18.1 nM | 21.7 nM | –
26 | COc1cc(Cl)cc(Oc2ncn(C[C@@]3(O)CCN(C(=O)[C@@H]4CCN(Cc5cnc(C)cn5)C[C@H]4c4ccccc4)CC3(F)F)c(=O)c2N)c1 [Example 178] | 70.1 nM | 31.8 nM | –
